Source: patent US20220062391A1, “ENHANCING EPITHELIAL OR ENDOTHELIAL BARRIER FUNCTION” (UNIVERSITY OF ROCHESTER, priority 2019, published 2022)

Legend:
ATI cells [1] = assay: TEER of alveolar epithelial monolayers on transwell plates; format: cell-based, rat
Method: Primary rat alveolar epithelial type II cells were isolated using an IgG-panning approach as described by Dobbs (74). Briefly, lungs from Sprague Dawley rats (200-250 g) were surgically removed and perfused, lavaged, and treated with 1 mg/ml of elastase (WORTHINGTON BIOCHEMICAL, Lakewood, N.J.) to release the epithelial cells. Next, lung lobes were separated, cut, minced, filtered and spin down at 1500 rpm for 15 minutes. The cells were resuspended with DMEM without FBS and transferred into two IgG plates. After incubation at 37° C. for one hour, non-adhered cells (predominately ATII cells) were transferred to a new tube and centrifuged at 1500 rpm for 15 minutes. The cells were resuspended in DMEM containing 10% FBS and plated on fibronectin coated plates. To coat the plates with fibronectin, 20 μg/ml of fibronectin from bovine plasma (F1141, SIGMA-ALDRICH, St. Louis, Mo.) was added to 100 mm culture plates (using 3 ml) or the upper chamber of the transwell plates (using 400 μl). Plates were left at 37° C. for 3 hours. Residual solution was removed, and plates were dried in a tissue culture hood for at least 30 minutes before cells were added. 16HBE14o-human bronchial epithelial cells were cultured in Dulbecco's modified Eagle's medium as previously reported (18).
Prior to the assay, cells cultured on 12-well transwell plates (12 mm transwell with 0.4 μm pore polyester membrane insert; CORNING, Corning, N.Y.) were moved to the tissue culture hood for 15 minutes to allow the medium equilibrate to room temperature. TEER was measured using an epithelial voltmeter (EVOM2; WORLD PRECISION INSTRUMENTS, Sarasota, Fla.). Three readings were recorded and averaged for each well. To calculate TEER, the resistance of the fibronectin-coated insert without cells (blank resistance) was subtracted from the measured resistance, then multiplied by 1.12 cm^2 to account for the surface area of the insert.

ATI cells [2] = assay: Western blot of tight junction proteins in transfected ATI cells; format: cell-based, rat; conditions: 24 hours
Method: (§1) Primary rat alveolar epithelial type II cells were isolated using an IgG-panning approach as described by Dobbs (74). Briefly, lungs from Sprague Dawley rats (200-250 g) were surgically removed and perfused, lavaged, and treated with 1 mg/ml of elastase (WORTHINGTON BIOCHEMICAL, Lakewood, N.J.) to release the epithelial cells. Next, lung lobes were separated, cut, minced, filtered and spin down at 1500 rpm for 15 minutes. The cells were resuspended with DMEM without FBS and transferred into two IgG plates. After incubation at 37° C. for one hour, non-adhered cells (predominately ATII cells) were transferred to a new tube and centrifuged at 1500 rpm for 15 minutes. The cells were resuspended in DMEM containing 10% FBS and plated on fibronectin coated plates. […]
(§2) Cells were lysed with reporter lysis buffer (lx, PROMEGA), supplemented with protease inhibitor (COMPLETE, Mini, EDTA-free tablets; ROCHE, Basel, Switzerland) and phosphatase inhibitor (PHOSSTOP Phosphatase Inhibitor Cocktail; ROCHE, Basel, Switzerland). […] After incubation with secondary antibody and development, bands were detected on film (BIOMAX MR film; […] HEALTH, Rochester, N.Y.) or using the CHEMIDOC IMAGING SYSTEM (BIO-RAD, Hercules, Calif.) and quantified using the IMAGE STUDIO™ LITE software (LI-COR, Lincoln, Nebr.) or the IMAGE LAB SOFTWARE (BIO-RAD, Hercules, Calif.).

mouse lungs = assay: Alveolar fluid clearance (AFC) in live mice; format: in vivo; conditions: two days after gene transfer, or 10^−8 mol/L in the instillation solution
Method: (§3) Male C57BL/6 mice (9-11 weeks) were anesthetized with isoflurane and 100 μg of each individual plasmid were delivered in 50 μl of 10 mM Tris-HCl (pH 8.0), 1 mM EDTA, and 140 mM NaCl, to mouse lungs by aspiration (when both β1 and MRCKα were delivered, 100 μg of each were administered prior to electroporation) as previously described in Lin, X., et al., Gene Ther 23: 489-99. Eight, 10 msec square wave pulses at a field strength of 200 V/cm were immediately applied using cutaneous electrophysiology electrodes (MEDTRONIC, Redmond, Wash.) placed on the mouse chest with an ECM830 electroporator (BTX, HARVARD […], Holliston, Mass.). […]
The method used in this study was performed in live mice as previously described in Lin, X., et al., Gene Ther 23: 489-99 and Mutlu, G. M., et al., Circ Res 94: 1091-100. […] Protein concentration in the aspirate was assessed using a Bradford assay (BIO-RAD LABORATORIES, Hercules, Calif.) and AFC was calculated using following equation: AFC=1−(C0/C30), where C0, is the protein concentration of the instillate before instillation, and C30 is the protein concentration of the sample obtained at the end of 30 minutes of mechanical ventilation. Clearance is expressed as a percentage of total instilled volume cleared/30 minutes. […]

ATI cells [3] = assay: Permeability to fluorescent dextran tracers; format: cell-based, rat; conditions: 1 μg/ml
Method: Permeability to fluorescent tracers was measured using a modified protocol previous described (76). […] Five hundred microliters of freshly prepared solution containing 100 μg/mL of 40 kD FITC-dextran and 100 μg/mL of 31(D Texas Red-dextran were added to the apical compartment. One thousand microliters of P buffer was added to the bottom chamber. After 2 hours incubation at 37° C., 100 μl of the basal medium was collected and the fluorescence of the transported dextran was measured with a SPECTRAMAX M5 multi-mode microplate reader (MOLECULAR DEVICES, San Jose, Calif.). The excitation wavelength and emission wavelength are 492 nm and 520 nm for FITC and 596 nm and 615 nm for Texas-red, respectively. The quantity of tracer was calculated by comparison with a standard curve. A permeability coefficient was determined using the following equation (77): Pc (cm/min)=V/(A×Co)×(C/T) where V is volume in the lower compartment (1 ml), A is the surface area of the membrane (1.12 cm^2 for the 12-well transwell used here), Co is the dextran concentration in the upper compartment at time 0 (0.1 mg/ml), and C is the dextran concentration in the lower compartment at time T of sampling (2 hours).

LPS-injured lungs [4] = assay: Pulmonary permeability by Evan's blue dye leakage; format: in vivo, mouse; conditions: LPS 5 mg/kg intratracheal, compared with naïve mice
Method: as §3, with “Mass.). All LPS-challenged mice received 5 mg/kg of LPS (Escherichia coli 055:B5, 15,000,000 endotoxin units/mg protein; SIGMA-ALDRICH, St. Louis, Mo.) in 50 μl of phosphate-buffered saline (PBS) by aspiration, one day before gene transfer (n=5-11 mice/group).” for “Mass.).”
Pulmonary permeability was measured by Evan's blue dye (EBD) leakage from blood into airways (Baluk, P., et al., Br J Pharmacol 126: 522-8 and Mammoto, A., et al., Nat Commun 4: 1759). […] 24 hrs later, EBD was extracted in formamide (FISHER […]) at 37° C. for 24 hrs and quantified by measuring spectrophotometrically at 620 nm and 740 nm, correcting by using formula E620 (EBD)=E620−(1.426×E740+0.030) (Standiford, T. J., et al., J Immunol 155: 1515-24).

LPS-injured lungs [5] = assay: Western blot of occludin and ZO-1 in mouse lungs; format: in vivo; conditions: LPS 5 mg/kg
Method: as §3, with “Mass.). All LPS-challenged mice received 5 mg/kg of LPS (Escherichia coli 055:B5, 15,000,000 endotoxin units/mg protein; SIGMA-ALDRICH, St. Louis, Mo.) in 50 μl of phosphate-buffered saline (PBS) by aspiration, one day before gene transfer (n=5-11 mice/group).” for “Mass.).”
Western blots were performed as previously described in Lin, X., et al. Am J Respir Crit Care Med 183: 1689-97. […] After incubation with secondary antibody and development, bands were detected using the CHEMIDOC Imaging System (BIO-RAD, Hercules, Calif.) and quantified using the IMAGE STUDIO™ LITE software (LI-COR, Lincoln, Nebr.) or the IMAGE LAB software (BIO-RAD, Hercules, Calif.).

[6] = biological target: MRCKα of primary rat alveolar type I (ATI) cells (rat) (UniProt O54874); assay: cell-based or functional assay
Sequence of UniProt O54874 (O54874 whole entry): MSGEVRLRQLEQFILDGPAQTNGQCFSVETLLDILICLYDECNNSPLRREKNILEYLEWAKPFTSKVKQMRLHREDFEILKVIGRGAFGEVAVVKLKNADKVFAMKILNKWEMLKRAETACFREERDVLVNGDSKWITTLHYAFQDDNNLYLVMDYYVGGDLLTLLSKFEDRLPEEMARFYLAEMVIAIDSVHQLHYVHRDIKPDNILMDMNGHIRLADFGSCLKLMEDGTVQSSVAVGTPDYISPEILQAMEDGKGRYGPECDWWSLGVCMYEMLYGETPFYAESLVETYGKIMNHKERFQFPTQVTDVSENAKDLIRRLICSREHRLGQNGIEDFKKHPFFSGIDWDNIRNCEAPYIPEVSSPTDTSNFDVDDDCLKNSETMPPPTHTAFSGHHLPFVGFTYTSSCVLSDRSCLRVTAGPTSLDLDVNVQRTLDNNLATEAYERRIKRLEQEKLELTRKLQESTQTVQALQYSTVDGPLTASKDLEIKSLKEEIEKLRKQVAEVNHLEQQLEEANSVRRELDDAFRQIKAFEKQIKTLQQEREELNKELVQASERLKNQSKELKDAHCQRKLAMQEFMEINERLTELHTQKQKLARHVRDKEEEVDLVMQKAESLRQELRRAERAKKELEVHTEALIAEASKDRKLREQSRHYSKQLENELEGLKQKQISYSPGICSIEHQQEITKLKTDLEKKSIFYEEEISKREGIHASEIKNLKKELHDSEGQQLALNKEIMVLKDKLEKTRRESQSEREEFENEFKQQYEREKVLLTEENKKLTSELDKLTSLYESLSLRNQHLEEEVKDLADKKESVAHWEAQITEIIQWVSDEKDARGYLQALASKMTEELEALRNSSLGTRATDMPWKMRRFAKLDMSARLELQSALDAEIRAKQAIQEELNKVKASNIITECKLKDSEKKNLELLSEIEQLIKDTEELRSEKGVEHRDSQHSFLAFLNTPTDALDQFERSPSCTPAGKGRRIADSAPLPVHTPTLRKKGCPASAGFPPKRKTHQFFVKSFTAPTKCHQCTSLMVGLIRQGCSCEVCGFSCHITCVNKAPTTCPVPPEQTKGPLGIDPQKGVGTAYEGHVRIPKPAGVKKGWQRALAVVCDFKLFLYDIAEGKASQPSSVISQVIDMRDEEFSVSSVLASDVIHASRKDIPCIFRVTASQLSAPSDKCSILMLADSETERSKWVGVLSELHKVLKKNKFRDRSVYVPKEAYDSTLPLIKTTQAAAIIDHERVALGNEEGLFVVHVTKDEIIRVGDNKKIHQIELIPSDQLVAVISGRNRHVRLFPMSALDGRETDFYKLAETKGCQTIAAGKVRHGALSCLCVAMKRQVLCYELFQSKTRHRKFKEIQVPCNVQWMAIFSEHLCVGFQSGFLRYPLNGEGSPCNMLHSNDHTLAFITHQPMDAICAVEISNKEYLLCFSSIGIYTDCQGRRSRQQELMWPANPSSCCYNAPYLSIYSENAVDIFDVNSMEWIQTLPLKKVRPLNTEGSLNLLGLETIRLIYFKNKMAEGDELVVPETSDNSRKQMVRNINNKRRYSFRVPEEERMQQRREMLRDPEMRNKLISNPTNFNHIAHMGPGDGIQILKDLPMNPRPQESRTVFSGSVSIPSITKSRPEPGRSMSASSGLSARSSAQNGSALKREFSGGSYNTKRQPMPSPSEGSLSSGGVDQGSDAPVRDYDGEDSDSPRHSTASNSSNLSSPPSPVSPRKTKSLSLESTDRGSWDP

16HBE14o-cells = assay: Doxycycline-inducible β1 expression, immunoblot in 16HBE14o- cells; format: cell-based, human; conditions: 24 hours post transfection
Method: as §1, with “minutes.” for “minutes. The cells were resuspended in DMEM containing 10% FBS and plated on fibronectin coated plates.”
as §2
Given that the β1 subunit increased protein expressions of tight junctions in ATI cells, their localization in these cells was analyzed. […]

Cc1ccc2c(c1)C(=O)C1(O)CCN(c3ccccc3)C1=N2 (stereo not drawn) [blebbistatin]
β1-induced increase in TEER under myosin II inhibition (ATI cells [1]; pretreatment 20 μM): prevented the increase in TEER | β1-induced upregulation of occludin in presence of blebbistatin (ATI cells [2]; ATI cells transfected with rat β1, blebbistatin 1, 10 or 100 uM): significantly suppress the upregulation of occludin

CCC(NC(C)C)C(O)c1ccc(O)c2[nH]c(=O)ccc12 (stereo not drawn) [procaterol, Procaterol]
increase of AFC (mouse lungs): 145%

lipopolysaccharide
permeability to 4 kD Dextran after lipopolysaccharide (ATI cells [3]): increased permeability | increase of pulmonary leakage in response to LPS (LPS-injured lungs [4]): three- to four-fold | TEER after lipopolysaccharide (ATI cells [1]; 1 μg/ml, 24 hours): decreased TEER | levels of ZO-1 and occludin in lungs after LPS injury (LPS-injured lungs [5]): reduced levels

C[C@@H]1O[C@@H](O[C@H]2C[C@@H](O)[C@]3(CO)[C@H]4[C@H](O)C[C@]5(C)[C@@H](C6=CC(=O)OC6)CC[C@]5(O)[C@@H]4CC[C@]3(O)C2)[C@H](O)[C@H](O)[C@H]1O [ouabain]
β1-induced upregulation of occludin in presence of ouabain (ATI cells [2]; ATI cells transfected with rat β1, ouabain 10 nM, 100 nM or 1000 nM): did not block the upregulation of occludin

rat Na+, K+-ATPase β1 subunit (from UniProt P07340 1-304)
phosphorylation of myosin light chain 2 (MLC2) at Ser19, western blot after β1 subunit overexpression in ATI cells [6]: 2 fold

O=C(Nc1cn[nH]c1-c1ccccn1)c1nn(C2CCNCC2)cc1Cl [BDP5290]
baseline TEER (ATI cells [1]; 2 μM inhibitor): decreased | β1 subunit-induced increase of barrier integrity (TEER) under MRCKα inhibition (ATI cells [1]; 2 μM inhibitor): prevented β1 subunit-induced increase of barrier integrity

C[C@H]1c2cccc(O)c2C(=O)C2=C(O)[C@]3(O)C(=O)C(C(N)=O)=C(O)[C@@H](N(C)C)[C@@H]3[C@@H](O)[C@@H]21 [doxycycline]
doxycycline concentration of maximum induction of β1 subunit (16HBE14o-cells): 1000 ng/mL
